Data from patent publication US11304886B2, “N-acyl sarcosines as antimicrobials for preservation of home and personal care products” (GALAXY SURFACTANTS LTD., priority 2016, dated 2022).

Columns and labels:
Assay in all cases: Minimum Inhibitory Concentration (MIC)
Format in all cases: cell-based
[1] = tested on: Candida albicans ATCC 10231
[2] = tested on: Propionibacterium acnes ATCC 1953
[3] = tested on: Pseudomonas aeruginosa ATCC 15442
[4] = tested on: Staphylococcus aureus ATCC 6538
[5] = tested on: Malassezia furfur MTCC 1374
[6] = tested on: Aspergillus niger ATCC 16404
[7] = tested on: Escherichia coli ATCC 8739

MIC (%) [1] | MIC (%) [2] | MIC (%) [3] | MIC (%) [4] | MIC (%) [5] | MIC (%) [6] | MIC (%) [7] | Structure (SMILES)
0.7% | 0.6% | 0.7% | 0.7% | 0.6% | >1.0% | 0.7% | CCCCCCCC(=O)N(C)CC(=O)O [N-Capryloyl sarcosine, N-Capryloyl Sarcosine]
0.6% | 0.7% | 0.6% | 0.6% | 0.6% | >1.0% | 0.7% | C=CCCCCCCCCC(=O)N(C)CC(=O)O [N-Undecylenoyl sarcosine, N-Undecylenoyl Sarcosine]

Structure (SMILES) | MIC (%) [1] | MIC (%) [2] | MIC (%) [3] | MIC (%) [4] | MIC (%) [5] | MIC (%) [6] | MIC (%) [7]
OCCOc1ccccc1 [phenoxy ethanol, 2-phenoxy ethanol, reference compound] | 0.6% | 0.4% | 0.8% | 0.8% | 0.6% | 0.9% | 0.6%
